Results as given in ChEMBL document CHEMBL1681651, “A broad spectrum anticancer nucleoside with selective toxicity against human colon cells in vitro” (2011).

How the values were obtained:
Format in all cases: functional
NCI-H23 = assay: Growth inhibition of human NCI-H23 cells assessed as cell growth at 1 mM after 48 hrs by SRB assay; conditions: NCI-H23, 48 h, read-out: Activity
SK-MEL-5 [1] = assay: Growth inhibition of human SK-MEL-5 cells assessed as cell growth at 0.1 uM after 48 hrs by SRB assay; conditions: SK-MEL-5, 48 h, read-out: Activity
UACC-257 = assay: Growth inhibition of human UACC257 cells assessed as cell growth at 1 mM after 48 hrs by SRB assay; conditions: UACC-257, 48 h, read-out: Activity
786-0 [2] = assay: Growth inhibition of human 786-0 cells assessed as cell growth at 1 uM after 48 hrs by SRB assay; conditions: 786-0, 48 h, read-out: Activity
HT-29 = assay: Growth inhibition of human HT-29 cells assessed as cell growth at 1 uM after 48 hrs by SRB assay; conditions: HT-29, 48 h, read-out: Activity
UO-31 = assay: Growth inhibition of human UO31 cells assessed as cell growth at 1 uM after 48 hrs by SRB assay; conditions: UO-31, 48 h, read-out: Activity
SNB-19 = assay: Growth inhibition of human SNB19 cells assessed as cell growth at 0.1 uM after 48 hrs by SRB assay; conditions: SNB-19, 48 h, read-out: Activity
EKVX [3] = assay: Growth inhibition of human EKVX cells after 48 hrs by […] growth inhibition assay
SK-MEL-5 [4] = assay: Growth inhibition of human SK-MEL-5 cells assessed as cell growth at 100 uM after 48 hrs by SRB assay; conditions: SK-MEL-5, 48 h, read-out: Activity
KM12 = assay: Growth inhibition of human KM12 cells assessed as cell growth at 0.1 uM after 48 hrs by SRB assay; conditions: KM12, 48 h, read-out: Activity
EKVX [5] = assay: Growth inhibition of human EKVX cells assessed as cell growth at 100 uM after 48 hrs by SRB assay; conditions: read-out: Activity
HOP-92 [6] = assay: Growth inhibition of human HOP92 cells after 48 hrs by […] growth inhibition assay; conditions: HOP-92, 48 h
M14 = assay: Growth inhibition of human M14 cells assessed as cell growth at 10 uM after 48 hrs by SRB assay; conditions: M14, 48 h, read-out: Activity
NCI/ADR-RES = assay: Growth inhibition of human NCI/ADR-RES cells assessed as cell growth at 100 uM after 48 hrs by SRB assay; conditions: read-out: Activity
SF-295 [7] = assay: Growth inhibition of human SF295 cells assessed as cell growth at 100 uM after 48 hrs by SRB assay; conditions: SF-295, 48 h, read-out: Activity
U-251 = assay: Growth inhibition of human U251 cells assessed as cell growth at 1 uM after 48 hrs by SRB assay; conditions: U-251, 48 h, read-out: Activity
BT-549 = assay: Growth inhibition of human BT549 cells assessed as cell growth at 10 uM after 48 hrs by SRB assay; conditions: BT-549, 48 h, read-out: Activity
DU-145 = assay: Growth inhibition of human DU145 cells assessed as cell growth at 1 uM after 48 hrs by SRB assay; conditions: DU-145, 48 h, read-out: Activity
RXF 393 = assay: Growth inhibition of human RXF393 cells assessed as cell growth at 0.1 uM after 48 hrs by SRB assay; conditions: RXF 393, 48 h, read-out: Activity
PC-3 = assay: Growth inhibition of human PC3 cells after 48 hrs by […] growth inhibition assay; conditions: PC-3, 48 h
NCI-H226 = assay: Growth inhibition of human NCI-H226 cells after 48 hrs by […] growth inhibition assay; conditions: NCI-H226, 48 h
SF-268 = assay: Growth inhibition of human SF268 cells after 48 hrs by […] growth inhibition assay; conditions: SF-268, 48 h
LOX IMVI = assay: Growth inhibition of human LOXIMVI cells assessed as cell growth at 10 uM after 48 hrs by SRB assay; conditions: read-out: Activity
EKVX [8] = assay: Growth inhibition of human EKVX cells assessed as cell growth at 1 mM after 48 hrs by SRB assay; conditions: read-out: Activity
OVCAR-5 = assay: Growth inhibition of human OVCAR5 cells assessed as cell growth at 1 mM after 48 hrs by SRB assay; conditions: OVCAR-5, 48 h, read-out: Activity
TK-10 = assay: Growth inhibition of human TK10 cells assessed as cell growth at 1 mM after 48 hrs by SRB assay; conditions: TK-10, 48 h, read-out: Activity
HOP-92 [9] = assay: Growth inhibition of human HOP92 cells assessed as cell growth at 1 uM after 48 hrs by SRB assay; conditions: HOP-92, 48 h, read-out: Activity
786-0 [10] = assay: Growth inhibition of human 786-0 cells assessed as cell growth at 0.1 uM after 48 hrs by SRB assay; conditions: 786-0, 48 h, read-out: Activity
SNB-75 = assay: Growth inhibition of human SNB75 cells assessed as cell growth at 100 uM after 48 hrs by SRB assay; conditions: SNB-75, 48 h, read-out: Activity
HOP-62 = assay: Growth inhibition of human HOP62 cells assessed as cell growth at 100 uM after 48 hrs by SRB assay; conditions: HOP-62, 48 h, read-out: Activity
SK-OV-3 = assay: Growth inhibition of human SKOV3 cells assessed as cell growth at 10 uM after 48 hrs by SRB assay; conditions: SK-OV-3, 48 h, read-out: Activity
SF-539 = assay: Growth inhibition of human SF539 cells assessed as cell growth at 0.1 uM after 48 hrs by SRB assay; conditions: SF-539, 48 h, read-out: Activity
NCI-H460 = assay: Growth inhibition of human NCI-H460 cells assessed as cell growth at 1 uM after 48 hrs by SRB assay; conditions: NCI-H460, 48 h, read-out: Activity
Malme-3M = assay: Growth inhibition of human MALME-3M cells assessed as cell growth at 100 uM after 48 hrs by SRB assay; conditions: read-out: Activity
SF-295 [11] = assay: Growth inhibition of human SF295 cells assessed as cell growth at 1 uM after 48 hrs by SRB assay; conditions: SF-295, 48 h, read-out: Activity
[12] = read-out: LC50 (the source's name)
[13] = read-out: pLC50 (the source's name) (converted)

## CNC(=O)NC[C@H]1O[C@@H](n2cnc3c(NC(=O)Nc4ccccc4)ncnc32)[C@H](O[Si](C)(C)C(C)(C)C)[C@@H]1CC(=O)N(C)OC
NCI-H23
  growth at 1000 µM: 43%
SK-MEL-5 [1]
  growth at 0.1 µM: 104%
UACC-257
  growth at 1000 µM: 22%
786-0 [2]
  growth at 1 µM: 92%
HT-29
  growth at 1 µM: 107%
UO-31
  growth at 1 µM: 89%
SNB-19
  growth at 0.1 µM: 94%
EKVX [3]; read-out: GI50
  GI50: 26.4 µM
EKVX [3]; [12]
  CC50: > 100 µM
EKVX [3]; read-out: TGI
  TGI: > 100 µM
EKVX [3]; read-out: pGI50 (converted)
  GI50: 26.3 µM
EKVX [3]; [13]
  CC50: > 100 µM
EKVX [3]; read-out: pTGI (converted)
  TGI: > 100 µM
SK-MEL-5 [4]
  growth at 100 µM: 38%
KM12
  growth at 0.1 µM: 101%
EKVX [5]
  growth at 100 µM: 60%
HOP-92 [6]; read-out: GI50
  GI50: 2.71 µM
HOP-92 [6]; [12]
  CC50: > 100 µM
HOP-92 [6]; read-out: TGI
  TGI: 24.3 µM
HOP-92 [6]; read-out: pGI50 (converted)
  GI50: 2.69 µM
HOP-92 [6]; [13]
  CC50: > 100 µM
HOP-92 [6]; read-out: pTGI (converted)
  TGI: 24 µM
M14
  growth at 10 µM: 91%
NCI/ADR-RES
  growth at 100 µM: 76%
SF-295 [7]
  growth at 100 µM: 48%
U-251
  growth at 1 µM: 101%
BT-549
  growth at 10 µM: 96%
DU-145
  growth at 1 µM: 112%
RXF 393
  growth at 0.1 µM: 103%
PC-3; [12]
  CC50: > 100 µM
NCI-H226; read-out: GI50
  GI50: 41.9 µM
NCI-H226; [12]
  CC50: > 100 µM
NCI-H226; read-out: TGI
  TGI: > 100 µM
NCI-H226; read-out: pGI50 (converted)
  GI50: 41.7 µM
NCI-H226; [13]
  CC50: > 100 µM
NCI-H226; read-out: pTGI (converted)
  TGI: > 100 µM
SF-268; read-out: GI50
  GI50: 8.29 µM
SF-268; [12]
  CC50: > 100 µM
SF-268; read-out: TGI
  TGI: > 100 µM
SF-268; read-out: pGI50 (converted)
  GI50: 8.32 µM
SF-268; [13]
  CC50: > 100 µM
SF-268; read-out: pTGI (converted)
  TGI: > 100 µM
LOX IMVI
  growth at 10 µM: 94%
EKVX [8]
  growth at 1000 µM: 36%
OVCAR-5
  growth at 1000 µM: 35%
TK-10
  growth at 1000 µM: 17%
HOP-92 [9]
  growth at 1 µM: 93%
786-0 [10]
  growth at 0.1 µM: 95%
SNB-75
  growth at 100 µM: 54%
HOP-62
  growth at 100 µM: 64%
SK-OV-3
  growth at 10 µM: 95%
SF-539
  growth at 0.1 µM: 96%
NCI-H460
  growth at 1 µM: 93%
Malme-3M
  growth at 100 µM: 52%
SF-295 [11]
  growth at 1 µM: 93%

## CNC(=O)NC[C@H]1O[C@@H](n2cnc3c(NC(=O)Nc4ccccc4)ncnc32)[C@H](O[Si](C)(C)C(C)(C)C)[C@@H]1O[Si](C)(C)C(C)(C)C
NCI-H23
  growth at 1000 µM: -53%
SK-MEL-5 [1]
  growth at 0.1 µM: 102%
UACC-257
  growth at 1000 µM: -24%
786-0 [2]
  growth at 1 µM: 113%
HT-29
  growth at 1 µM: 104%
UO-31
  growth at 1 µM: 97%
SNB-19
  growth at 0.1 µM: 97%
EKVX [3]; read-out: GI50
  GI50: 3.7 µM
EKVX [3]; [12]
  CC50: > 100 µM
EKVX [3]; read-out: TGI
  TGI: 30.6 µM
EKVX [3]; read-out: pGI50 (converted)
  GI50: 3.72 µM
EKVX [3]; [13]
  CC50: > 100 µM
EKVX [3]; read-out: pTGI (converted)
  TGI: 30.9 µM
SK-MEL-5 [4]
  growth at 100 µM: -42%
KM12
  growth at 0.1 µM: 104%
EKVX [5]
  growth at 100 µM: 9%
HOP-92 [6]; read-out: GI50
  GI50: 1.56 µM
HOP-92 [6]; [12]
  CC50: 97.6 µM
HOP-92 [6]; read-out: TGI
  TGI: 5.16 µM
HOP-92 [6]; read-out: pGI50 (converted)
  GI50: 1.55 µM
HOP-92 [6]; [13]
  CC50: 97.7 µM
HOP-92 [6]; read-out: pTGI (converted)
  TGI: 5.13 µM
M14
  growth at 10 µM: 105%
NCI/ADR-RES
  growth at 100 µM: 10%
SF-295 [7]
  growth at 100 µM: 7%
U-251
  growth at 1 µM: 102%
BT-549
  growth at 10 µM: 103%
DU-145
  growth at 1 µM: 107%
RXF 393
  growth at 0.1 µM: 98%
PC-3; read-out: GI50
  GI50: 2.69 µM
PC-3; [12]
  CC50: > 100 µM
PC-3; read-out: TGI
  TGI: > 1 µM
PC-3; read-out: pGI50 (converted)
  GI50: 2.69 µM
PC-3; [13]
  CC50: > 100 µM
PC-3; read-out: pTGI (converted)
  TGI: > 100 µM
NCI-H226; read-out: GI50
  GI50: 3.1 µM
NCI-H226; [12]
  CC50: > 100 µM
NCI-H226; read-out: TGI
  TGI: 8.63 µM
NCI-H226; read-out: pGI50 (converted)
  GI50: 3.09 µM
NCI-H226; [13]
  CC50: > 100 µM
NCI-H226; read-out: pTGI (converted)
  TGI: 8.71 µM
SF-268; read-out: GI50
  GI50: 3.58 µM
SF-268; [12]
  CC50: > 100 µM
SF-268; read-out: TGI
  TGI: 14 µM
SF-268; read-out: pGI50 (converted)
  GI50: 3.55 µM
SF-268; [13]
  CC50: > 100 µM
SF-268; read-out: pTGI (converted)
  TGI: 14.1 µM
LOX IMVI
  growth at 10 µM: 98%
EKVX [8]
  growth at 1000 µM: -9%
OVCAR-5
  growth at 1000 µM: -43%
TK-10
  growth at 1000 µM: -2%
HOP-92 [9]
  growth at 1 µM: 80%
786-0 [10]
  growth at 0.1 µM: 108%
SNB-75
  growth at 100 µM: 14%
HOP-62
  growth at 100 µM: 26%
SK-OV-3
  growth at 10 µM: 107%
SF-539
  growth at 0.1 µM: 100%
NCI-H460
  growth at 1 µM: 93%
Malme-3M
  growth at 100 µM: -1%
SF-295 [11]
  growth at 1 µM: 107%

## CNC(=O)OC[C@H]1O[C@@H](n2cnc3c(NC(=O)Nc4ccccc4)ncnc32)[C@H](O[Si](C)(C)C(C)(C)C)[C@@H]1O[Si](C)(C)C(C)(C)C
M14
  growth at 10 µM: 102%
LOX IMVI
  growth at 10 µM: 87.4%
SK-OV-3
  growth at 10 µM: 106%
